Measured values: ChEMBL document CHEMBL4266060, “Structure-Property Relationship Studies of Influenza A Virus AM2-S31N Proton Channel Blockers” (ACS Med Chem Lett, 2018)
Activity calls are given as the source filed them. No cut-off for these calls is given here.

Tests used:
[1] = test system: Influenza A virus; experiment: Inhibition of Influenza A virus AM2 expressed in xenopus laevis frog oocytes assessed as inhibition of channel current at 100 uM after 2 mins by two-electrode voltage clamp assay relative to control; format: cell-based
[2] = test system: Influenza A virus; format: functional, A/California/07/2009(H1N1), MDCK
[3] = Cytotoxicity against MDCK cells after 48 hrs by neutral red uptake assay; format: cell-based, Canis lupus familiaris; conditions: dog
[4] = Half life in mouse liver microsomes at 1 uM in presence of NADPH generating system by LC-MS/MS analysis; format: ADME, microsome
[5] = Intrinsic clearance in mouse liver microsomes at 1 uM in presence of NADPH generating system by LC-MS/MS analysis; format: ADME, microsome; conditions: read-out: CLH
[6] = Half life in human liver microsomes at 1 uM in presence of NADPH generating system by LC-MS/MS analysis; format: ADME, microsome
[7] = Permeability of the compound by PAMPA; format: ADME; conditions: read-out: permeability
[8] = test system: Influenza A virus; experiment: microbe, parasite or virus in culture; conditions: A/California/07/2009(H1N1), MDCK
Description: Antiviral activity against Influenza A virus (A/California/07/2009(H1N1)) infected in MDCK cells expressing ST6Gal-1 assessed as reduction in plaque formation pretreated with virus for 30 mins followed by viral infection measured after 2 to 3 days by naphthalene black dye based assay

[9] = Half life in mouse liver microsomes at 0.5 uM; format: ADME, microsome; conditions: for half-life at 0.5 µM: liver microsomes
[10] = test system: Influenza A virus; format: functional, organism-based; conditions: A/California/07/2009(H1N1), MDCK, 30 nM
[11] = test system: Influenza A virus; format: functional, organism-based; conditions: A/California/07/2009(H1N1), MDCK, 30 nM; remark: listed apart in the source
[12] = test system: Influenza A virus; format: functional, organism-based; conditions: A/California/07/2009(H1N1), A549, 30 nM
[13] = Intrinsic clearance in mouse liver microsomes at 0.5 uM; format: ADME, microsome; conditions: read-out: CLH
[14] = test system: Influenza A virus; format: functional, organism-based; conditions: A/California/07/2009(H1N1), MDCK, 10 uM
[15] = test system: Influenza A virus; format: functional, A/California/07/2009(H1N1), A549
[16] = test system: Influenza A virus; format: functional, A/California/07/2009(H1N1), A549; remark: listed apart in the source
[17] = test system: Influenza A virus; format: functional, A/California/07/2009(H1N1), A549; remark: listed apart in the source

Row | SMILES | inhibition [1] [%] | Activity [2] [%] | CC50 at 48 h [3] [µM] | half-life at 1 µM [4] [min] | CLint scaled at 1 µM [5] [mL/min/kg] | EC50 [8] [µM] | further results
1 | COc1ccc(-c2ccc(CNC34CC5CC(CC(O)(C5)C3)C4)s2)cc1OC | 0 | 67.5 |  |  |  |  | 
2 | OC12CC3CC(C1)CC(NCc1ccc(Br)s1)(C3)C2 | 11.4 | 3.9 | 238 | > 145 | < 38 | 1.1 | half-life at 1 µM [6]: > 145 min; Papp [7]: 25.3 ×10⁻⁶ cm/s
3 | OC12CC3CC(C1)CC(NCc1cnc(Br)s1)(C3)C2 | 2.7 | 102.1 |  |  |  |  | 
4 | C[Si](C)(C)c1ccc(CNC23CC4CC(CC(O)(C4)C2)C3)cc1 |  |  |  |  |  |  | t1/2 ([9]; microsomes, 0.5 µM): 4.4 min
5 | Brc1ccc(CNC23CCC4CC(CC(C4)C2)C3)s1 | 86.5 | 0 | 43.1 | 9.1 | 604 | 0.6 | 
6 | OC12CC3CC(C1)CC(NCc1ccc(-c4ccc(F)cc4F)s1)(C3)C2 | 0 | 44.1 |  |  |  |  | 
7 | OC12CC3CC(C1)CC(NCc1csc(Br)c1)(C3)C2 | 1.9 | 31.3 | 364 |  |  | 5.1 | 
8 | Brc1ccc(CNC23CC4CC(CC(C4)C2)C3)[se]1 | 56.1 | 0 | 82.1 | 32.1 | 171 | 2.2 | 
9 | COc1ncc(-c2ccc(CNC34CC5CC(CC(O)(C5)C3)C4)s2)cn1 | 0 | 74 |  |  |  |  | 
10 | CCC(CC)O[C@@H]1C=C(C(=O)O)C[C@H](N)[C@H]1NC(C)=O [OSELTAMIVIR CARBOXYLATE] |  |  | > 20 |  |  | 0.0024 | Activity [10]: Active; Activity [11]: inactive; Activity [12]: inactive
11 | c1nc(N2CCCCCC2)ncc1CNC12CC3CC(CC(C3)C1)C2 |  |  |  |  |  |  | half-life at 0.5 µM [9]: 0.8 min; CLint scaled at 0.5 µM [13]: 6760 mL/min/kg
12 | OC12CC3CC(C1)CC(NCc1cnc(N4CCCCC4)nc1)(C3)C2 |  |  |  |  |  |  | half-life at 0.5 µM [9]: 19.4 min; CLint scaled at 0.5 µM [13]: 283 mL/min/kg
13 | OC12CC3CC(C1)CC(NCc1ccc(-c4ccccc4)s1)(C3)C2 | 0.3 | 27.9 | 80.5 |  |  | 2.1 | 
14 | OC12CC3CC(C1)CC(NCc1ccc(I)s1)(C3)C2 | 3.2 | 2.5 | 317 | > 145 | < 38 | 0.9 | half-life at 1 µM [6]: > 145 min; Papp [7]: 20.4 ×10⁻⁶ cm/s; Activity [14]: Active; Activity [15]: 1.8 log10PFU/ml; Activity [16]: 2.1 log10PFU/ml; Activity [17]: 2.9 log10PFU/ml
15 | OC12CC3CC(C1)CC(NCc1ccc(-c4ccccc4Cl)s1)(C3)C2 | 0 | 20.4 | 65.2 |  |  | 2.5 | 
16 | COC(=O)c1ccc(-c2ccc(CNC34CC5CC(CC(O)(C5)C3)C4)s2)cc1 | 0 | 52 |  |  |  |  | 
17 | CSc1ccccc1-c1ccc(CNC23CC4CC(CC(O)(C4)C2)C3)s1 | 0 | 47.7 |  |  |  |  | 
18 | OC12CC3CC(C1)CC(NCc1nc(Br)cs1)(C3)C2 | 3.9 | 108 |  |  |  |  | 
19 | OC12CC3CC(C1)CC(NCc1cc(Br)cs1)(C3)C2 | 6.5 | 31.4 | 381 | 101 | 54.5 | 3.1 | 
20 | Brc1ccc(CNC23CC4CC(CC(C4)C2)C3)s1 | 77.2 | 3.2 | 123 | > 145 | < 38 | 2.9 | half-life at 0.5 µM [9]: > 145 min; CLint scaled at 0.5 µM [13]: < 38 mL/min/kg
21 | c1csc(-c2cc(CNC34CC5CC(CC(C5)C3)C4)no2)c1 |  | 0 |  |  |  |  | 
22 | OC12CC3CC(C1)CC(NCc1ccc(N4CCCCCC4)cn1)(C3)C2 |  |  |  |  |  |  | half-life at 0.5 µM [9]: 22.1 min; CLint scaled at 0.5 µM [13]: 248 mL/min/kg
23 | Ic1ccc(CNC23CC4CC(CC(C4)C2)C3)s1 | 91 | 1.8 | 70.2 | 24.5 | 224 | 1 | 
24 | COc1ccc(-c2ccc(CNC34CC5CC(CC(O)(C5)C3)C4)s2)cn1 | 0 | 40.5 |  |  |  |  | 
25 | c1csc(-c2ccc(CNC34CC5CC(CC(C5)C3)C4)s2)c1 | 17.9 | 58.5 | 19.5 | 2.8 | 1940 | 12.2 | 
